Laboratory results taken from paper PMC5501184 (Journal of medicinal chemistry, 2017).
Read-outs that look alike come from different tables or passages of the source.

Assays:
[1] = target: T1, hDAT (Homo sapiens, UniProt Q01959); settings: read-out: Kd of [^125I]23 at hDAT; no modulator; cited from earlier work
[2] = target: mDAT (Mus musculus, UniProt Q61327); assay: [^125I]23 binding to mDAT expressed in HEK-293 cells
[3] = test system: mouse; settings: cited from earlier work
[4] = metabolomic study; cited from earlier work
[5] = cited from earlier work
[6] = target: T1, hDAT; settings: 10 μM; [^3H]24 binding, PDSP; ref Janowsky et al.[3]; cited from earlier work
[7] = test system: cytochrome P450 (5 isozymes); settings: cited from earlier work

T1 sequence (Q01959 whole entry): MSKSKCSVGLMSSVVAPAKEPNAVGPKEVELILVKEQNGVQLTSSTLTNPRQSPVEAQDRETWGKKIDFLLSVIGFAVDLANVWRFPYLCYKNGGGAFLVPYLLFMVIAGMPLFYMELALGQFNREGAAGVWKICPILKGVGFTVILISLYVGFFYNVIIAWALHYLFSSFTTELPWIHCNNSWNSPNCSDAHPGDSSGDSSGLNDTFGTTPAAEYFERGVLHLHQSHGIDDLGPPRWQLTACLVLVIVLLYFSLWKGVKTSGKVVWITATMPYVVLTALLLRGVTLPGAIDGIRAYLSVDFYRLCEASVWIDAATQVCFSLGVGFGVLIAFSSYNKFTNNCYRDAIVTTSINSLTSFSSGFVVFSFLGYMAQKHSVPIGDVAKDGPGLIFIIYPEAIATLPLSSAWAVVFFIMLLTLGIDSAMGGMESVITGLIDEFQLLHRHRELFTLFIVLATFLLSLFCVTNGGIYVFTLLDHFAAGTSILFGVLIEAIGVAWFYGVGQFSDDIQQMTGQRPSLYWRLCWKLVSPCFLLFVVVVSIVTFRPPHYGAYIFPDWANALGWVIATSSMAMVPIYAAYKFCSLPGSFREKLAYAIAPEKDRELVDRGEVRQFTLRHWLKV
Chain of mDAT (Q61327 whole entry): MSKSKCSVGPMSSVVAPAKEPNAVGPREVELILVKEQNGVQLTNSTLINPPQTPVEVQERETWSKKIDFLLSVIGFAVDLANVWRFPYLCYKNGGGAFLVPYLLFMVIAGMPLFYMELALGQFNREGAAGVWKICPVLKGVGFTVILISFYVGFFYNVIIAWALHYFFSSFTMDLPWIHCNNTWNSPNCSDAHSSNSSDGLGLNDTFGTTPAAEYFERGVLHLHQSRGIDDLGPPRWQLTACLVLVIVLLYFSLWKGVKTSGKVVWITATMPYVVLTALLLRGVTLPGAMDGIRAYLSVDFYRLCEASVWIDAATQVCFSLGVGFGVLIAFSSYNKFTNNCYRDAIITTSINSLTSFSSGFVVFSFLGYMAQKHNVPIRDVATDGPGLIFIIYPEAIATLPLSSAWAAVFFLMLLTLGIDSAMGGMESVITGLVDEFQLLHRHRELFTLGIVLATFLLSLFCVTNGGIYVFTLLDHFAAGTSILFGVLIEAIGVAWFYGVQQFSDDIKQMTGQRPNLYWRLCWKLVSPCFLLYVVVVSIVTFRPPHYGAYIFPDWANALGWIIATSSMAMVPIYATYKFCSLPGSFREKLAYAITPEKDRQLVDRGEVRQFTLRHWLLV

| SMILES | Kd [1] | Kd [2] | locomotor activity ([3]; 10 mg/kg) | locomotor activity ([3]; 30 mg/kg) | tolerability in vivo [4] | stability in the presence of liver microsomes, plasma and simulated body fluids [5] | hDAT Binding Inhibition, % of control [6] | inhibition of cytochrome P450 (5 isozymes) [7] |
| --- | --- | --- | --- | --- | --- | --- | --- | --- |
| COC(=O)[C@H]1[C@@H](c2ccc(I)cc2)CC2CC[C@H]1N2C [compound 23, methyl (1R,2S,3S)-3-(4-iodophenyl)-8-methyl-8-azabicyclo[3.2.1]octane-2-carboxylate] | 1.3 nM | 3.9 nM | – | – | – | – | – | – |
| CNC(=O)[C@@]12C[C@@H]1[C@@H](n1cnc3c(NC)nc(C#Cc4ccc(Cl)s4)nc31)[C@H](O)[C@@H]2O [compound 1, (1S,2R,3S,4R,5S)-4-(2-((5-chlorothiophen-2-yl)ethynyl)-6-(methylamino)-9H-purin-9-yl)-2,3-dihydroxy-N-methylbicyclo[3.1.0]hexane-1-carboxamide] | – | – | did not significantly stimulate locomotor activity | reduced locomotor activity | well tolerated | stable | NE (no effect) | do not inhibit |
